Experimental data published in publication PMC8449414, “Rational design of ASCT2 inhibitors using an integrated experimental-computational approach” (Proceedings of the National Academy of Sciences of the …, 2021).
“And” between values parts separate entries of the source, which are not always exact repeats. Identical values can stand only once.

How the values were obtained:
rASCT2 = target: T1, rASCT2 (Rattus norvegicus, UniProt D3ZJ25); experiment: Electrophysiology: inhibition of leak anion current in transfected HEK293 cells; assay type: cell-based; conditions: HEK293 cells, 0 mV, 130 mM NaSCN internal, 140 mM NaCl external, No current = no inhibition of anion leak current up to highest concentration tested (§ 20-50, || 100-400, # 1500-2500 µM); for Ki: read-out: Binding affinity Ki (apparent Ki)
T1 construct: expressed in transfected cells; host or cells: HEK293 (ATCC CRL-11268), transient transfection
T1 sequence (D3ZJ25 1-555): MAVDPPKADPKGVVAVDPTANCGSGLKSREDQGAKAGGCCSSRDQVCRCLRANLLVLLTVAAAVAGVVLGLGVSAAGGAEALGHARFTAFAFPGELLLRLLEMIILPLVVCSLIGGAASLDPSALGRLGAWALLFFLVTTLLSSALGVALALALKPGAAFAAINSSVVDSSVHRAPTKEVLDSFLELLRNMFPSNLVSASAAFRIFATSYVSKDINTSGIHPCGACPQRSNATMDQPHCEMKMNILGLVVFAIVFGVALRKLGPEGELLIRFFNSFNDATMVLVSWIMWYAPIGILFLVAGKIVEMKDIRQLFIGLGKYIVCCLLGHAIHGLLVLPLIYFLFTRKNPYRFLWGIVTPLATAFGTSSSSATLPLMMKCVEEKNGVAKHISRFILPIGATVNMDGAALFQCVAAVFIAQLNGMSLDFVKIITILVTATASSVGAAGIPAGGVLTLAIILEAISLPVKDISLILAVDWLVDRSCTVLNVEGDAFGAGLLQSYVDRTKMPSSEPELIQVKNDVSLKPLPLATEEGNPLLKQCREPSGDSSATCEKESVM
Procedure: (§1) Cell culture and transfection
(§2) Human embryonic kidney 293 (HEK293, ATCC CRL -11268) cells were cultured in DMEM media supplemented with 10% (v/v) fetal bovine serum (FBS), 2 mM glutamine, 1% penicillin streptomycin solution, 1 mM sodium pyruvate and non -essential amino acids. Cells were maintained at 370C in a fully humidified atmosphere containing 5% CO2. rASCT2, hASCT2, hASCT1, EAAT1, EAAT2, EAAT3, EAAT5 and YFP complementary DNAs were each used to transiently transfect HEK293 using POLYPLUS Jet-prime transfection reagent. Cells were analyzed using electrophysiological techniques 24-40 hours after transfection.
(§3) Electrophysiological techniques
(§4) Electrophysiological experiments were performed as described previously 1,2. Stock solutions of inhibitor was prepared in dimethyl sulfoxide (DMSO) up to 100 mM.
(§5) Dilutions to working concentrations were made using external buffer. The highest

hASCT2 = target: T2, hASCT2 (Homo sapiens, UniProt Q15758); experiment: as above; assay type: cell-based; conditions: for Ki / Binding affinity Ki (apparent Ki): HEK293 cells, 0 mV, 130 mM NaSCN internal, 140 mM NaCl external, No current = no inhibition of anion leak current up to highest concentration tested (§ 20-50, || 100-400, # 1500-2500 µM); for Ki: read-out: Binding affinity Ki (apparent Ki); for selectivity for hASCT2 over rEAAT1: ratio of Ki, hASCT2 versus rEAAT1; for activity (in words, structure activity relationship): ASCT2, species not given
T2 construct: expressed in transfected cells; host or cells: HEK293 (ATCC CRL-11268), transient transfection
T2 sequence (Q15758 1-541): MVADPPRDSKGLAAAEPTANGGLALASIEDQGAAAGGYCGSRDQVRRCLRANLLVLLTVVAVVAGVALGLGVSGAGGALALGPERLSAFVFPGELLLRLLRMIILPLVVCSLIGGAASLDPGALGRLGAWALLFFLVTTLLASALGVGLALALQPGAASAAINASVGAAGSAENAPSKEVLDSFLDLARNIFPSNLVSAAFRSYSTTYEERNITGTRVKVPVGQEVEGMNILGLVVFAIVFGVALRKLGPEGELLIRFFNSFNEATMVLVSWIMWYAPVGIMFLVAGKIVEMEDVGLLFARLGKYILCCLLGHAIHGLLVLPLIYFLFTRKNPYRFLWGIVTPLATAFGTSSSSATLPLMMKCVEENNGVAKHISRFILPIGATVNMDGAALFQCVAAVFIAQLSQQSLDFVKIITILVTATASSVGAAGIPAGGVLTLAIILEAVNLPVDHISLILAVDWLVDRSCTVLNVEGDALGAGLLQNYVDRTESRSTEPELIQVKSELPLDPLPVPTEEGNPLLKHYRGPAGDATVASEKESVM
Procedure: as §1, §2, §3, §4, §5

Structure (SMILES) | Ki (rASCT2) [µM] | Ki (hASCT2) | selectivity for hASCT2 over rEAAT1 (hASCT2) | Binding affinity Ki (apparent Ki) (hASCT2) | Binding affinity Ki (apparent Ki) (rASCT2) | activity (in words, structure activity relationship) (hASCT2)
N[C@@H](COC(=O)c1cccnc1)C(=O)O [ERA-28] | 266 ± 42.7 | 690 ± 54.2 µM | – | – | – | –
O=C(O[C@@H]1CN[C@H](C(=O)O)C1)c1ccc(C(O)c2ccccc2)cc1 (some centres unmarked) [ERA-9] | 18.8 ± 4.97 | 5.65 µM and 5.7 µM | sevenfold | – | – | –
N[C@@H](COC(=O)c1ccccc1)C(=O)O [ERA-25] | 290 ± 16.5 | 186 ± 17.2 µM | – | – | – | –
O=C(O[C@@H]1CN[C@H](C(=O)O)C1)c1ccc(-c2ccc(C(F)(F)F)cc2)cc1 [ERA-5] | 0.27 ± 0.05 | 1.05 ± 0.21 µM | – | – | – | –
O=C(O[C@@H]1CN[C@H](C(=O)O)C1)c1ccc(OCc2ccccc2)cc1 [ERA-31] | 8.17 ± 1.05 | – | – | No current | – | –
N[C@@H](COC(=O)c1ccc(NC(=O)c2ccccc2)cc1)C(=O)O [ERA-21] | 4.33 ± 1.3 | 22.6 ± 3.66 µM | – | – | – | –
O=C(O[C@@H]1CN[C@H](C(=O)O)C1)C(c1ccccc1)c1ccccc1 [ERA-29] | – | – | – | No current | No current | no activity
Cc1ccccc1-c1ccc(C(=O)O[C@@H]2CN[C@H](C(=O)O)C2)cc1 [ERA-6] | 0.97 ± 0.08 | 1.12 ± 0.11 µM | – | – | – | –
O=C(O[C@@H]1CN[C@H](C(=O)O)C1)c1ccc(-c2ccc(F)cc2)cc1 [ERA-4] | 0.65 ± 0.04 | 0.74 ± 0.09 µM | – | – | – | –
O=C(Nc1ccc(C(=O)O[C@@H]2CN[C@H](C(=O)O)C2)cc1)c1ccc(C(F)(F)F)cc1 [ERA-11] | 3.37 ± 0.41 | 2.94 ± 0.93 µM | threefold | – | – | –
O=C(O[C@H]1CN[C@H](C(=O)O)C1)c1ccc(C(=O)c2ccccc2)cc1 [ERA-35] | 121 ± 29.9 | > 500 µM | – | – | – | –
O=C(O[C@@H]1CN[C@H](C(=O)O)C1)c1ccc(-c2ccccc2)cc1 [Lc-BPE, L-cis hydroxyproline biphenyl ester] | 0.74 ± 0.11 | 0.86 ± 0.11 µM | – | – | – | –
O=C(O[C@@H]1CN[C@H](C(=O)O)C1)c1ccccc1-c1ccccc1 [ERA-3] | – | – | – | No current | No current | inactive
O=C(O[C@@H]1CN[C@H](C(=O)O)C1)c1ccc(Oc2ccccc2)cc1 [ERA-16] | 3.68 ± 0.73 | 4.17 ± 0.46 µM | – | – | – | –
